The target of this test is PARP7 (Homo sapiens (Human), UniProt Q7Z3E1). The test is described as follows: In vitro enzymology experiment of PARP7 (enzymatic inhibition). It is filed as biochemical. The procedure, abridged: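 Histone-coated plate ADP-ribosylation format: compound preincubated 10 min at room temperature with preincubated (25 °C, 10 min) enzyme mixture; incorporated biotin detected by streptavidin-HRP and QuantaRed fluorescence (Ex550/Em620).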
Sequence of PARP7 (Q7Z3E1 whole entry): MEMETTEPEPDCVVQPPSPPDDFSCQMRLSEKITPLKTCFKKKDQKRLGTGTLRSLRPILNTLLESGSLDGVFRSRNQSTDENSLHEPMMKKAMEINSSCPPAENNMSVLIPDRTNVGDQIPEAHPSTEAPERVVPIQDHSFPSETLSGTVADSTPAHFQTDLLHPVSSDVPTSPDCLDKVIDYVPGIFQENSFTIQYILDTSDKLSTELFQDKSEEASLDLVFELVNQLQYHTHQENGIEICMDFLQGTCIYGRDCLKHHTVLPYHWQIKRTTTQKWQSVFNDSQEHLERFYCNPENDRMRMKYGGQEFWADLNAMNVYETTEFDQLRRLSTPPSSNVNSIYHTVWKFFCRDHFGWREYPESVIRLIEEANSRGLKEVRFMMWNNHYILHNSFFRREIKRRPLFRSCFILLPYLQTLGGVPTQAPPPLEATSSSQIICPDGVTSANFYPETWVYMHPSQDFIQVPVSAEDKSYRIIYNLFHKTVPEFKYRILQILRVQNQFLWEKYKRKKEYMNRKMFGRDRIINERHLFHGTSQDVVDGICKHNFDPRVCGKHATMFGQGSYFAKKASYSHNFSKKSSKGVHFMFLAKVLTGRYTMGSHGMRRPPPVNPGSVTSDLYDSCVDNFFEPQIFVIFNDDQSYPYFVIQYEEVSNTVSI
The IC50 is the concentration at which inhibition is half-maximal. A low value points to greater potency in that assay. `CNC(=O)c1cnc(N2CCN(C(=O)O[C@@H](C)Cc3c[nH]c(=O)c(C(F)(F)F)c3)CC2)nc1` [Example 87, (S)-1-(6-Oxo-5-(trifluoromethyl)-1,6-dihydropyridin-3-yl)propan-2-yl 4-(5-(methylcarbamoyl)pyrimidin-2-yl)piperazine-1-carboxylate] had a 50% inhibitory concentration (IC50) of 0.5 nM.
As to `CNC(=O)c1ccc(N2CCN(C(=O)O[C@@H](C)Cc3c[nH]c(=O)c(C(F)(F)F)c3)CC2)cn1` [Example 88, (S)-1-(6-Oxo-5-(trifluoromethyl)-1,6-dihydropyridin-3-yl)propan-2-yl 4-(6-(methylcarbamoyl)pyridin-3-yl)piperazine-1-carboxylate], half-maximal inhibition (IC50) required 1.98 nM.
Compound `C[C@@H](Cc1c[nH]c(=O)c(C(F)(F)F)c1)OC(=O)N1CCN(C(=O)C2CC2)CC1` [Example 90, (S)-1-(6-Oxo-5-(trifluoromethyl)-1,6-dihydropyridin-3-yl)propan-2-yl 4-(cyclopropanecarbonyl)piperazine-1-carboxylate] came in with a concentration for half-maximal inhibition (IC50) of 1.08 nM.
The result for `C[C@@H]1CN(c2ncc(C(F)(F)F)cn2)CCN1C(=O)O[C@@H](C)Cc1c[nH]c(=O)c(C(F)(F)F)c1` [Example 91, (S)-1-(6-Oxo-5-(trifluoromethyl)-1,6-dihydropyridin-3-yl)propan-2-yl (R)-2-methyl-4-(5-(trifluoromethyl)pyrimidin-2-yl)piperazine-1-carboxylate] reads 0.78 nM; that for `C[C@@H](Cc1c[nH]c(=O)c(C(F)(F)F)c1)OC(=O)N1CCN(c2ncc(C(F)(F)F)cn2)C[C@@H]1C` [Example 92, (S)-1-(6-Oxo-5-(trifluoromethyl)-1,6-dihydropyridin-3-yl)propan-2-yl (S)-2-methyl-4-(5-(trifluoromethyl)pyrimidin-2-yl)piperazine-1-carboxylate], 0.19 nM.
The result for `C[C@@H]1CN(C(=O)O[C@@H](C)Cc2c[nH]c(=O)c(C(F)(F)F)c2)CCN1c1ncc(C(F)(F)F)cn1` [Example 94, (S)-1-(6-Oxo-5-(trifluoromethyl)-1,6-dihydropyridin-3-yl)propan-2-yl (R)-3-methyl-4-(5-(trifluoromethyl)pyrimidin-2-yl)piperazine-1-carboxylate] reads 0.68 nM.
Consider `O=C(Oc1cccc(-c2c[nH]c(=O)c(C(F)(F)F)c2)c1)N1CCN(c2ncc(C(F)(F)F)cn2)CC1` [Example 95, 3-(6-Oxo-5-(trifluoromethyl)-1,6-dihydropyridin-3-yl)phenyl 4-(5-(trifluoromethyl)pyrimidin-2-yl)piperazine-1-carboxylate], for which the IC50 worked out at 0.72 nM.
Compound `O=C(Cc1cccc(-c2c[nH]c(=O)c(C(F)(F)F)c2)c1)N1CCN(c2ncc(C(F)(F)F)cn2)CC1` [Example 96, 5-(3-(2-Oxo-2-(4-(5-(trifluoromethyl)pyrimidin-2-yl)piperazin-1-yl)ethyl)phenyl)-3-(trifluoromethyl)pyridin-2(1H)-one] had an IC50 of 1.03 nM.
With `C[C@@H](Cc1c[nH]c(=O)c(C(F)(F)F)c1)OC(=O)N1CCN(c2ccc(C(F)(F)F)cc2)CC1` [Example 97, (S)-1-(6-Oxo-5-(trifluoromethyl)-1,6-dihydropyridin-3-yl)propan-2-yl 4-(4-(trifluoromethyl)phenyl)piperazine-1-carboxylate], the IC50 is 0.86 nM. The IC50 values of the last two compounds are within 1.5-fold of each other.
The result for `C[C@@H](Cc1c[nH]c(=O)c(C(F)(F)F)c1)OC(=O)N1CC=C(c2ccc(C(F)(F)F)cn2)CC1` [Example 98, (S)-1-(6-Oxo-5-(trifluoromethyl)-1,6-dihydropyridin-3-yl)propan-2-yl 5-(trifluoromethyl)-3′,6′-dihydro-[2,4′-bipyridine]-1′(2′H)-carboxylate] reads 0.83 nM; that for `C[C@@H](Cc1c[nH]c(=O)c(C(F)(F)F)c1)OC(=O)N1CCC(c2ccc(C(F)(F)F)cn2)CC1` [Example 99, (S)-1-(6-Oxo-5-(trifluoromethyl)-1,6-dihydropyridin-3-yl)propan-2-yl 4-(5-(trifluoromethyl)pyridin-2-yl)piperidine-1-carboxylate], 0.56 nM; that for `C[C@@H](Cc1c[nH]c(=O)c(C(F)(F)F)c1)OC(=O)N1CCN(c2ncc(C(C)(C)O)cn2)CC1` [Example 100, (S)-1-(6-Oxo-5-(trifluoromethyl)-1,6-dihydropyridin-3-yl)propan-2-yl 4-(5-(2-hydroxypropan-2-yl)pyrimidin-2-yl)piperazine-1-carboxylate], 0.61 nM.
The value for `C[C@@H](Cc1c[nH]c(=O)c(C(F)(F)F)c1)OC(=O)N1CCN(c2ncc(S(C)(=O)=O)cn2)CC1` [Example 101, (S)-1-(6-Oxo-5-(trifluoromethyl)-1,6-dihydropyridin-3-yl)propan-2-yl 4-(5-(methylsulfonyl)pyrimidin-2-yl)piperazine-1-carboxylate] was 0.67 nM; that for `CC(Cc1c[nH]c(=O)c2ccccc12)OC(=O)N1CCN(c2ncc(C(F)(F)F)cn2)CC1` (stereo not shown) [Example 102, 1-(1-Oxo-1,2-dihydroisoquinolin-4-yl)propan-2-yl 4-(5-(trifluoromethyl)pyrimidin-2-yl)piperazine-1-carboxylate] was 0.95 nM; that for `O=C(OCCc1c[nH]c(=O)c(C(F)(F)F)c1)N1CCN(c2ncc(C(F)(F)F)cn2)[C@@H](CO)C1` [Example 104, 2-(6-Oxo-5-(trifluoromethyl)-1,6-dihydropyridin-3-yl)ethyl (R)-3-(hydroxymethyl)-4-(5-(trifluoromethyl)pyrimidin-2-yl)piperazine-1-carboxylate] was 0.53 nM.
For the compound `Cc1cnc(N2CCN(C(=O)OCCc3c[nH]c(=O)c(C(F)(F)F)c3)CC2)nc1` [Example 105], the half-maximal inhibitory concentration (IC50) was determined as 0.92 nM.
On to `O=C(OCCc1c[nH]c(=O)c(C(F)(F)F)c1)N1CCN(c2ccc(C(F)(F)F)cn2)CC1` [Example 106, 2-(6-Oxo-5-(trifluoromethyl)-1,6-dihydropyridin-3-yl)ethyl 4-(5-(trifluoromethyl)pyridin-2-yl)piperazine-1-carboxylate], for which the IC50 was 0.46 nM. This IC50 lies about 2-fold lower than the previous one.
Turning to `O=C(OCCc1c[nH]c(=O)c(C(F)(F)F)c1)N1CCN(c2ncc(C(F)(F)F)cn2)C[C@@H]1CO` [Example 107, 2-(6-Oxo-5-(trifluoromethyl)-1,6-dihydropyridin-3-yl)ethyl (R)-2-(hydroxymethyl)-4-(5-(trifluoromethyl)pyrimidin-2-yl)piperazine-1-carboxylate], half-maximal inhibition (IC50) required 0.72 nM.
`C[C@H]1CN(c2ncc(C(F)(F)F)cn2)CCN1C(=O)OCCc1c[nH]c(=O)c(C(F)(F)F)c1` [Example 108, 2-(6-Oxo-5-(trifluoromethyl)-1,6-dihydropyridin-3-yl)ethyl (S)-2-methyl-4-(5-(trifluoromethyl)pyrimidin-2-yl)piperazine-1-carboxylate] showed an IC50 of 0.63 nM.
As for `O=C(OCCc1c[nH]c(=O)c(C(F)(F)F)c1)N1CCN(c2ncc(C(F)(F)F)cn2)C[C@H]1CO` [Example 110, 2-(6-Oxo-5-(trifluoromethyl)-1,6-dihydropyridin-3-yl)ethyl (S)-2-(hydroxymethyl)-4-(5-(trifluoromethyl)pyrimidin-2-yl)piperazine-1-carboxylate], the IC50 came to 0.65 nM.
In the case of `O=C(OCCc1c[nH]c(=O)c(C(F)(F)F)c1)N1CCN(c2ncc(C(F)(F)F)cn2)[C@H](CO)C1` [Example 111, 2-(6-Oxo-5-(trifluoromethyl)-1,6-dihydropyridin-3-yl)ethyl (S)-3-(hydroxymethyl)-4-(5-(trifluoromethyl)pyrimidin-2-yl)piperazine-1-carboxylate], the IC50 came to 0.61 nM.
Compound `C[C@@H]1CN(C(=O)OCCc2c[nH]c(=O)c(C(F)(F)F)c2)CCN1c1ncc(C(F)(F)F)cn1` [Example 112, 2-(6-Oxo-5-(trifluoromethyl)-1,6-dihydropyridin-3-yl)ethyl (R)-3-methyl-4-(5-(trifluoromethyl)pyrimidin-2-yl)piperazine-1-carboxylate] registered an IC50 of 0.62 nM.
`C[C@H]1CN(C(=O)OCCc2c[nH]c(=O)c(C(F)(F)F)c2)CCN1c1ncc(C(F)(F)F)cn1` [Example 113, 2-(6-Oxo-5-(trifluoromethyl)-1,6-dihydropyridin-3-yl)ethyl (S)-3-methyl-4-(5-(trifluoromethyl)pyrimidin-2-yl)piperazine-1-carboxylate] gave an IC50 of 0.65 nM.
Turning to `CC(C)(O)c1cnc(N2CCN(C(=O)OCCc3c[nH]c(=O)c(C(F)(F)F)c3)CC2)nc1` [Example 114, 2-(6-Oxo-5-(trifluoromethyl)-1,6-dihydropyridin-3-yl)ethyl 4-(5-(2-hydroxypropan-2-yl)pyrimidin-2-yl)piperazine-1-carboxylate], half-maximal inhibition (IC50) was put at 0.53 nM. This IC50 and that of the compound before are within 1.5-fold of each other.
For the compound `CN(CCc1c[nH]c(=O)c(C(F)(F)F)c1)C(=O)N1CCN(c2ncc(C(F)(F)F)cn2)CC1` [Example 115, N-Methyl-N-(2-(6-oxo-5-(trifluoromethyl)-1,6-dihydropyridin-3-yl)ethyl)-4-(5-(trifluoromethyl)pyrimidin-2-yl)piperazine-1-carboxamide], the IC50 stood at 1 nM.
In the case of `CC[C@@H](Cc1c[nH]c(=O)c(C(F)(F)F)c1)OC(=O)N1CCN(c2ncc(C(F)(F)F)cn2)CC1` [Example 116, (S)-1-(6-Oxo-5-(trifluoromethyl)-1,6-dihydropyridin-3-yl) butan-2-yl 4-(5-(trifluoromethyl)pyrimidin-2-yl)piperazine-1-carboxylate], the half-inhibitory concentration (IC50) stood at 0.81 nM.
`O=C(O[C@@H](CO)Cc1c[nH]c(=O)c(C(F)(F)F)c1)N1CCN(c2ncc(C(F)(F)F)cn2)CC1` [Example 117, (R)-1-Hydroxy-3-(6-oxo-5-(trifluoromethyl)-1,6-dihydropyridin-3-yl)propan-2-yl 4-(5-(trifluoromethyl)pyrimidin-2-yl)piperazine-1-carboxylate]: the IC50 is 0.62 nM.
`O=C(OCCc1c[nH]c(=O)c(C(F)(F)F)c1)N1CCN(c2ncc(C3CCCCC3)cn2)CC1` [Example 118, 2-(6-Oxo-5-(trifluoromethyl)-1,6-dihydropyridin-3-yl)ethyl 4-(5-cyclohexylpyrimidin-2-yl)piperazine-1-carboxylate]: half-maximal inhibition (IC50) was put at 0.93 nM. Against the preceding compound, the IC50 is about 1.5-fold higher.

For the origin of these results see patent US20240351997A1, “NOVEL PARP7 INHIBITOR AND USE THEREOF” (SHANGHAI QILU PHARMACEUTICAL RESEARCH AND DEVELOPMENT …, priority 2021, published 2024).
